Where two headings read alike, the source gives them in different places.
What was measured:
MDA-MB-453 cells = assay: Cell proliferation, MDA-MB-453 (CellTiter Glo); format: cell-based; conditions: Homo sapiens; MDA-MB-453; 96 hr; read-out: Cell Proliferation GI50 (nM) MDA
Procedure: For both MDA-MB-453 and Huh7 cells the starting density was 5000 cells per well. The cells were allowed to settle down for 4 hr and were then treated with 5, 1.25, 0.31, 0.078, 0.020 or 0.005 μM of test compound for: 96 hr for MDA-MB-453 and 120 hr for Huh7 cells. Cell viability was determined by CellTiter Glo (Promega, Madison, Wis.) and the results were converted to cell numbers using a standard curve. The growth inhibition (GI50) values were determined by Graph Pad Prism.
The results of these experiments show the ability of compounds to inhibit cell growth in FGFR dependant cell lines and are depicted in Table 8, in the columns titled “Cell Proliferation GI50 (nM)”. MDA-MB-453 cell results fall under the heading “MDA” and Huh7 cell results fall under the heading “Huh.”

Huh7 cells = assay: Cell proliferation, Huh7 (CellTiter Glo); format: cell-based; conditions: Homo sapiens, Huh-7; Huh7; 120 hr; read-out: Cell Proliferation GI50 (nM) HUH
Procedure: The growth inhibition (GI50) values were determined by Graph Pad Prism.

[1] = molecular target: FGFR4 in MDA-MB-453 cells (Homo sapiens (Human), UniProt P22455, Y367C); assay: Target occupancy assay with biotinylated covalent probe I-127; format: cell-based; conditions: MDA-MB-453 lysate; 2 μM biotinylated probe I-127
Sequence of FGFR4 in MDA-MB-453 cells (P22455 22-802 Y367C): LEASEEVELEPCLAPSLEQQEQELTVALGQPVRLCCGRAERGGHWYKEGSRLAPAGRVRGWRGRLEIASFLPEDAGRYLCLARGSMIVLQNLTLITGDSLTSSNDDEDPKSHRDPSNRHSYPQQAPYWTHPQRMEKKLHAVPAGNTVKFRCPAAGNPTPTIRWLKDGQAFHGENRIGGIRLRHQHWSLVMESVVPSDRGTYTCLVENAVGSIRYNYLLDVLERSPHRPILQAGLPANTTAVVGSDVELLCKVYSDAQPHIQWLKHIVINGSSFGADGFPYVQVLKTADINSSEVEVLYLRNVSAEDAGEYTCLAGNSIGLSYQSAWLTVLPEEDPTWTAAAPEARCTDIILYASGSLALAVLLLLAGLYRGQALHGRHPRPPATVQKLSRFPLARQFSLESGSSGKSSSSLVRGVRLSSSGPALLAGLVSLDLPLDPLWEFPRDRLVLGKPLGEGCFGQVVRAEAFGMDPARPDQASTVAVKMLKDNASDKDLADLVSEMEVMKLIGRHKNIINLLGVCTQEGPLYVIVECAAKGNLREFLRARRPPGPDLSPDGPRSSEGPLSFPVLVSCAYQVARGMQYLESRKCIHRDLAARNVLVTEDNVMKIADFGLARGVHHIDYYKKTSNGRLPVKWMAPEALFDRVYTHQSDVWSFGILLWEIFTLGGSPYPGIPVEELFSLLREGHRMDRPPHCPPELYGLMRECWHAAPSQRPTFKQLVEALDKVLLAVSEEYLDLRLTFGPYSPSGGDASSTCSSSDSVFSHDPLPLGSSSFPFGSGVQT
Procedure: In order to assess free FGFR4 protein a biotinylated covalent probe was utilized. […] The reaction was incubated for 2 hr at room temperature. The samples and probe mixture were transferred to a FGFR4-coated MSD plate for 2 hr at room temperature. MSD signals were obtained with an anti-streptavidin Sulfo-tag (Meso Scale) antibody for 1 hr at room temperature.
If a compound completely (100%) covalently modies FGFR4 no free FGFR4 should be available for covalent modification by the biotinylated probe and subsequent binding to streptavidin and detection.

FGFR4-WT = FGFR4-WT (Homo sapiens (Human), UniProt P22455); assay: Omnia assay for potency assessment against FGFR4 enzyme; format: biochemical; conditions: read-out: FGFR4 IC50
Sequence of FGFR4-WT (P22455 22-802): as the sequence (P22455 22-802 Y367C) above, with C346Y counted along it
Procedure: A 10× stock solution of FGFR4-WT (PR4380C), (from Invitrogen, Carlsbad, Calif.) corresponding to method a in Table 7, was prepared as described below. Alternatively, a 10× stock solution of FGFR4-WT (F01-11G), (SignalChem, Richmond, BC) corresponding to method b in Table 7, was prepared as described below. A solution of 1.4×ATP (AS001A) and 5×Tyr-Sox conjugated peptide substrate (KNZ3101) were prepared in IX kinase reaction buffer consisting of 20 mM Tris, pH 7.5, 5 mM MgCl2, 1 mM EGTA, 5 mM β-glycerophosphate, 5% glycerol (10× stock, KB002A) and 0.2 mM DTT (DS001A). […] The serially diluted compounds were prepared on a Tecan EVO100. A second addition of 10 μl of Tyr-Sox FGFR4 substrate was added to each well and the kinase reactions were started with the addition of 35 μL of 1.4×ATP. The reactions were monitored every 71 seconds for 240 minutes at λex360/λem485 in a Synergy plate reader from BioTek (Winooski, Vt.).

[2] = molecular target: pFGFR4 in MDA-MB-453 cells (Homo sapiens (Human), UniProt P22455, Y367C); assay: FGFR4 signaling (phospho-FGFR4) in MDA-MB-453 cells; format: cell-based; conditions: 1 hr treatment
Sequence of pFGFR4 in MDA-MB-453 cells (P22455 22-802 Y367C): as the sequence (P22455 22-802 Y367C) above

[3] = method a: Invitrogen FGFR4-WT 10 nM, ATP 300 uM, Y10-Sox 10 uM
[4] = Method A immunoblotting (Western blotting)

| GI50 (MDA-MB-453 cells) | GI50 (Huh7 cells) | EC50 [1] | Compound | IC50 (FGFR4-WT; [3]) | other results |
| --- | --- | --- | --- | --- | --- |
| < 100 nM | < 100 nM | < 100 nM | C=CC(=O)Nc1ccccc1Nc1ncc2c(n1)N(Cc1cccc(N)c1)C(=O)N(c1c(Cl)c(OC)cc(OC)c1Cl)C2 [I-26] |  |  |
| 101 to 500 nM | > 1000 nM | 101 to 500 nM | C=CC(=O)Nc1ccccc1Nc1ncc2c(n1)N(Cc1cccnc1)C(=O)N(c1cc(OC)cc(OC)c1)C2 [I-44] |  |  |
|  |  |  | C=CC(=O)N(C)C1CCCCC1Nc1ncc2c(n1)N(C)C(=O)N(c1c(Cl)c(OC)cc(OC)c1Cl)C2 (centres unmarked) [I-53] | < 100 nM |  |
| 501 to 999 nM | > 1000 nM | 101 to 500 nM | C=CC(=O)Nc1ccccc1Nc1ncc2c(n1)N(CCOC)C(=O)N(c1cc(OC)cc(OC)c1)C2 [I-59] |  |  |
|  |  |  | C=CC(=O)Nc1cc(N2CCN(C(=O)OC(C)(C)C)CC2)ccc1Nc1ncc2c(n1)N(C)C(=O)N(c1c(Cl)c(OC)cc(OC)c1Cl)C2 [I-62] | < 100 nM |  |
|  |  |  | CCC(=O)N[C@H]1CCCC[C@H]1Nc1ncc2c(n1)N(Cc1cscn1)C(=O)N(c1c(Cl)c(OC)cc(OC)c1Cl)C2 [I-118] | > 1000 nM |  |
|  |  |  | C=CC(=O)N[C@@H]1CCCC[C@@H]1Nc1ncc2c(n1)N(Cc1cscn1)C(=O)N(c1c(Cl)c(OC)cc(OC)c1Cl)C2 [I-119] |  | IC50 (FGFR4-WT): > 1000 nM |
| < 100 nM | 101 to 500 nM | < 100 nM | C=CC(=O)NC1COCC1Nc1ncc2c(n1)N(C)C(=O)N(c1c(Cl)c(OC)cc(OC)c1Cl)C2 (centres unmarked) [I-126] |  |  |
|  |  |  | C=CC(=O)Nc1ccccc1Nc1ncc2nc(-c3cc(OC)cc(OC)c3)c(=O)n(C)c2n1 [I-128] | 101 to 500 nM |  |
| < 100 nM |  | < 100 nM | C=CC(=O)Nc1ccccc1Nc1ncc2c(n1)N(Cc1csc(C)n1)C(=O)N(c1c(Cl)c(OC)cc(OC)c1Cl)C2 [I-134] |  |  |
|  |  |  | C=CC(=O)N[C@H]1CCCC[C@H]1Nc1ncc2c(n1)N(Cc1cnn(C)c1)C(=O)N(c1c(Cl)c(OC)cc(OC)c1Cl)C2 [I-148] | < 100 nM |  |
|  |  |  | C=CC(=O)Nc1ccccc1Nc1ncc2cc(-c3cc(OC)cc(OC)c3)c(N)nc2n1 [I-155] | < 100 nM |  |
| 101 to 500 nM | 101 to 500 nM |  | C=CC(=O)NCc1ccccc1Nc1ncc2c(n1)N(Cc1cccc(NC(=O)CC)c1)C(=O)N(c1c(Cl)c(OC)cc(OC)c1Cl)C2 [I-179] |  | EC50 [2, 4]: < 100 nM |
|  |  |  | C=CC(=O)Nc1ccccc1CNc1ncc2c(n1)N(Cc1cccc(NC(=O)CC)c1)C(=O)N(c1c(Cl)c(OC)cc(OC)c1Cl)C2 [I-180] |  | EC50 ([2]; Method C ELISA): < 100 nM |
|  |  |  | C=CC(=O)N[C@H]1CCCC[C@H]1Nc1ncc2c(n1)N(C)C(=O)N(c1c(Cl)c(OC)c(OC)c(OC)c1Cl)C2 [I-221] | > 1000 nM |  |
|  |  |  | C=CC(=O)Nc1cccc(Nc2ncc3c(n2)N(Cc2cccc(NC(=O)CC)c2)C(=O)N(c2c(Cl)c(OC)cc(OC)c2Cl)C3)c1 [I-232] |  | IC50 (FGFR4-WT): < 100 nM; EC50 [2, 4]: < 100 nM |
|  |  | > 1000 nM | CCC(=O)Nc1ccccc1Nc1ncc2c(n1)N(Cc1ccccc1)C(=O)N(c1c(Cl)c(OC)cc(OC)c1Cl)C2 [I-236] |  |  |

| Compound | GI50 (MDA-MB-453 cells) | GI50 (Huh7 cells) | EC50 [1] | IC50 (FGFR4-WT; [3]) | other results |
| --- | --- | --- | --- | --- | --- |
| C=CC(=O)Nc1cc(N2CCN(C(C)=O)CC2)ccc1Nc1ccc2c(c1)N(C)C(=O)N(c1cc(OC)cc(OC)c1)C2 [I-55] | 101 to 500 nM | 101 to 500 nM | 101 to 500 nM | < 100 nM |  |
| C=CC(=O)N[C@H]1CCCC[C@H]1Nc1ncc2c(n1)N(Cc1cscn1)C(=O)N(c1c(Cl)c(OC)cc(OC)c1Cl)C2 [I-114] | 101 to 500 nM | 101 to 500 nM | 101 to 500 nM |  | IC50 (FGFR4-WT): < 100 nM |
| C=CC(=O)Nc1ccccc1Nc1ncc2c(n1)N(Cc1cnn(C)c1)C(=O)N(c1c(Cl)c(OC)cc(OC)c1Cl)C2 [I-149] |  | < 100 nM |  | < 100 nM |  |
| C=CC(=O)NC1COCC1Nc1ncc2c(n1)N(Cc1cn[nH]c1)C(=O)N(c1c(Cl)c(OC)cc(OC)c1Cl)C2 (centres unmarked) [I-214] |  | 101 to 500 nM |  |  | IC50 (FGFR4-WT): < 100 nM |

— patent publication US10189794B2, “Heteroaryl compounds and uses thereof” (Celgene CAR LLC, priority 2013, dated 2019)
